# US10815275B2, “Antimicrobial peptoids with improved selectivity and use thereof” (priority 2018, dated 2020)
# Non-standard residues stand in square brackets, D forms with d. Residues, ends and D or L forms follow the SMILES beside them. Nspe = C[C@H](NCC(=O)O)c1ccccc1; Nphe = O=C(O)CNCc1ccccc1; Nlys = NCCCCNCC(=O)O
# What was measured:
# [1] = test system: E. coli strain ATCC25922; type: cell-based; details: for MBC E. coli: ATCC25922; for MIC E. coli: ATCC25922, 18 h
# Description: (§1) In order to measure antimicrobial activity of the peptoids, Gram-positive S. aureus strain KCTC1621, or Gram-negative E. coli strain ATCC25922 was treated with the peptoids prepared in Preparation Example 1, and minimum inhibitory concentrations were measured. Peptoid NOS. 1 and 2 are already known peptoids and were used for the purpose of making a comparison with novel peptoids in terms of antimicrobial activity.
# (§2) Specifically, S. aureus strain KCTC1621 or E. coli strain ATCC25922 was inoculated into Mueller Hinton Broth (MHB2) liquid medium on which cations were adjusted, cultured at a temperature of 37° C. for 18 hours, and then subcultured for 4 hours. Thereafter, the strains were diluted with MHB2 liquid medium containing 0.2% bovine serum albumin and 0.01% acetic acid so that each bacterial number was 2×10^5 colony-forming units (CFU) per 1 mL, and dispensed into 96-well microtiter plates at 100 μL each. A peptoid stock which is 40-fold more concentrated than a concentration to be tested was added to each well at 2.5 μL or lower so that the peptoid stock was 2-fold serially diluted using sterile water. Thereafter, the plates were incubated at a temperature of 37° C. for 18 hours.
# (§3) Thereafter, absorbance was measured at a wavelength of 600 nm using a microplate reader (Bio-Rad). The lowest peptoid concentration that completely suppresses growth of microorganisms was measured by a minimum inhibitory concentration (MIC) and a minimum bactericidal concentration (MBC), and the measurement results are shown in Table 5 below. Each of the MIC values was calculated as an average value of numerical values obtained through three independent experiments.
# [2] = test system: S. aureus strain KCTC1621; type: cell-based; details: for MBC S. aureus: KCTC1621; for MIC S. aureus: KCTC1621, 18 h
# Description: as §1, §2, §3
# [3] = test system: red blood cells; assay: Hemolytic activity on red blood cells; type: cell-based, mouse
# Description: In order to identify, through red blood cell hemolytic activity in mice, whether the peptoids synthesized in Preparation Example 1 are cytotoxic, red blood cells isolated from 10 mL of mouse blood were washed three times with phosphate-buffered saline (PBS, mixed solution of 35 mM phosphate buffer/150 mM NaCl, pH 7.4), and then centrifuged at a centrifugal force of 1,000 ×g for 10 minutes. A 10% (v/v) red blood cell solution diluted with PBS was dispensed into a 96-well microtiter plate at 150 μL each, and then a peptide solution was added at 50 μL each. Thereafter, the 96-well microtiter plate was incubated at a temperature of 37° C. for 1 hour.
# The incubated 96-well microtiter plate was centrifuged at a centrifugal force of 1,000×g for 5 minutes. Thereafter, supernatant was taken at 100 μL each and transferred to a new 96-well microtiter plate. Then, absorbance at a wavelength of 540 nm was measured (Table 6).
# In this case, a value obtained in a case of being treated with 0.1% (v/v) Triton X-100 was set as 100% hemolysis, and hemolytic activity (degree of cell destruction) of the peptoids was calculated using the following Equation 1. In the Equation 1, A is absorbance of the peptoid solution at a wavelength of 540 nm, B is absorbance of 0.1% Triton X-100 at a wavelength of 540 nm, and C is absorbance of the PBS solution at a wavelength of 540 nm. In this case, Peptoid NO. […] Degree of cell destruction (% hemolysis)=(A−C)/(B−C)[…] [Equation 1]
# In Table 6, HD10 means a peptoid concentration which causes 10% hemolysis of red blood cells, and HD50 means a peptoid concentration which causes 50% hemolysis of red blood cells. In addition, Hmax is a hemolysis rate (%) at 200 μM which is the highest peptoid concentration used in the experiment.
# Hemolytic activity of Peptoid NOS. 1, 18 to 23, and the peptide Pexiganan was measured in the same manner as in Experimental Example 2.
# [4] = test system: E. coli; assay: Selectivity analysis, HD10 divided by MIC for E. coli; details: HD10 of Table 6 divided by MIC for E. coli ATCC25922
# Description: In order to identify changes in selectivity depending on alteration of degree of folding in helical structure of peptoids, selectivity of each peptoid was calculated using the resultant values measured in the Experimental Examples 1 and 2. The selectivity was obtained by dividing the HD10 value by the minimum inhibitory concentration for E. coli (Table 8).
Compound,MBC E. coli [1] [µM],MIC E. coli [1] [µM],MBC S. aureus [2] [µM],MIC S. aureus [2] [µM],HD10 [3],HD50 [3],Selectivity [HD10/MIC (E. coli)] [4]
C[C@@H](c1ccccc1)N(CC(=O)N(CC(=O)N(CCCCN)CC(=O)N(CC(=O)N(CC(=O)N(CCCCN)CC(=O)N(CC(=O)N(CC(=O)N(CCCCN)CC(=O)N(CC(=O)N(CC(N)=O)Cc1ccccc1)Cc1ccccc1)Cc1ccccc1)Cc1ccccc1)Cc1ccccc1)Cc1ccccc1)Cc1ccccc1)C(=O)CNCCCCN [compound 3] (H-[Nlys][Nspe][Nphe][Nlys][Nphe][Nphe][Nlys][Nphe][Nphe][Nlys][Nphe][Nphe]-NH2),25,25,3.1,3.1,112.7,> 200,4.5
C[C@@H](c1ccccc1)N(CC(=O)N(CC(=O)N(CCCCN)CC(=O)N(CC(=O)N(CC(=O)N(CCCCN)CC(=O)N(CC(=O)N(CC(N)=O)Cc1ccccc1)Cc1ccccc1)Cc1ccccc1)Cc1ccccc1)Cc1ccccc1)C(=O)CN(CCCCN)C(=O)CN(Cc1ccccc1)C(=O)CN(Cc1ccccc1)C(=O)CNCCCCN [compound 5] (H-[Nlys][Nphe][Nphe][Nlys][Nspe][Nphe][Nlys][Nphe][Nphe][Nlys][Nphe][Nphe]-NH2),12.5,12.5,3.1,3.1,–,195.0,–
C[C@@H](c1ccccc1)N(CC(=O)N(CCCCN)CC(=O)N(CC(=O)N(CC(=O)N(CCCCN)CC(=O)N(CC(=O)N(CC(N)=O)Cc1ccccc1)Cc1ccccc1)Cc1ccccc1)Cc1ccccc1)C(=O)CN(Cc1ccccc1)C(=O)CN(CCCCN)C(=O)CN(Cc1ccccc1)C(=O)CN(Cc1ccccc1)C(=O)CNCCCCN [compound 6] (H-[Nlys][Nphe][Nphe][Nlys][Nphe][Nspe][Nlys][Nphe][Nphe][Nlys][Nphe][Nphe]-NH2),25,12.5,3.1,3.1,101.4,185.4,–
C[C@@H](c1ccccc1)N(CC(=O)N(CC(=O)N(CCCCN)CC(=O)N(CC(=O)N(CC(N)=O)Cc1ccccc1)Cc1ccccc1)Cc1ccccc1)C(=O)CN(CCCCN)C(=O)CN(Cc1ccccc1)C(=O)CN(Cc1ccccc1)C(=O)CN(CCCCN)C(=O)CN(Cc1ccccc1)C(=O)CN(Cc1ccccc1)C(=O)CNCCCCN [compound 7] (H-[Nlys][Nphe][Nphe][Nlys][Nphe][Nphe][Nlys][Nspe][Nphe][Nlys][Nphe][Nphe]-NH2),25,12.5,3.1,3.1,–,> 200,–
C[C@@H](c1ccccc1)N(CC(=O)N(CCCCN)CC(=O)N(CC(=O)N(CC(N)=O)Cc1ccccc1)Cc1ccccc1)C(=O)CN(Cc1ccccc1)C(=O)CN(CCCCN)C(=O)CN(Cc1ccccc1)C(=O)CN(Cc1ccccc1)C(=O)CN(CCCCN)C(=O)CN(Cc1ccccc1)C(=O)CN(Cc1ccccc1)C(=O)CNCCCCN [compound 8] (H-[Nlys][Nphe][Nphe][Nlys][Nphe][Nphe][Nlys][Nphe][Nspe][Nlys][Nphe][Nphe]-NH2),25,12.5,3.1,3.1,88.5,> 200,7.1
C[C@@H](c1ccccc1)N(CC(=O)N(CC(N)=O)Cc1ccccc1)C(=O)CN(CCCCN)C(=O)CN(Cc1ccccc1)C(=O)CN(Cc1ccccc1)C(=O)CN(CCCCN)C(=O)CN(Cc1ccccc1)C(=O)CN(Cc1ccccc1)C(=O)CN(CCCCN)C(=O)CN(Cc1ccccc1)C(=O)CN(Cc1ccccc1)C(=O)CNCCCCN [compound 9] (H-[Nlys][Nphe][Nphe][Nlys][Nphe][Nphe][Nlys][Nphe][Nphe][Nlys][Nspe][Nphe]-NH2),25,12.5,3.1,3.1,54.4,> 200,4.3
C[C@@H](c1ccccc1)N(CC(N)=O)C(=O)CN(Cc1ccccc1)C(=O)CN(CCCCN)C(=O)CN(Cc1ccccc1)C(=O)CN(Cc1ccccc1)C(=O)CN(CCCCN)C(=O)CN(Cc1ccccc1)C(=O)CN(Cc1ccccc1)C(=O)CN(CCCCN)C(=O)CN(Cc1ccccc1)C(=O)CN(Cc1ccccc1)C(=O)CNCCCCN [compound 10],25,12.5,3.1,3.1,103.3,> 200,–
C[C@@H](c1ccccc1)N(CC(N)=O)C(=O)CN(Cc1ccccc1)C(=O)CN(CCCCN)C(=O)CN(Cc1ccccc1)C(=O)CN(Cc1ccccc1)C(=O)CN(CCCCN)C(=O)CN(Cc1ccccc1)C(=O)CN(Cc1ccccc1)C(=O)CN(CCCCN)C(=O)CN(Cc1ccccc1)C(=O)CN(C(=O)CNCCCCN)[C@@H](C)c1ccccc1 [compound 12],25,12.5,3.1,3.1,79.7,> 200,6.4
C[C@@H](c1ccccc1)N(CC(N)=O)C(=O)CN(C(=O)CN(CCCCN)C(=O)CN(Cc1ccccc1)C(=O)CN(Cc1ccccc1)C(=O)CN(CCCCN)C(=O)CN(Cc1ccccc1)C(=O)CN(Cc1ccccc1)C(=O)CN(CCCCN)C(=O)CN(Cc1ccccc1)C(=O)CN(C(=O)CNCCCCN)[C@@H](C)c1ccccc1)[C@@H](C)c1ccccc1 [compound 14],12.5,12.5,1.6,1.6,53.9,199.6,4.3
C[C@@H](c1ccccc1)N(CC(=O)N(CCCCN)CC(=O)N(CC(=O)N(CC(=O)N(CCCCN)CC(=O)N(CC(=O)N(CC(N)=O)Cc1ccccc1)Cc1ccccc1)[C@@H](C)c1ccccc1)[C@@H](C)c1ccccc1)C(=O)CN(C(=O)CN(CCCCN)C(=O)CN(Cc1ccccc1)C(=O)CN(Cc1ccccc1)C(=O)CNCCCCN)[C@@H](C)c1ccccc1 [compound 16] (H-[Nlys][Nphe][Nphe][Nlys][Nspe][Nspe][Nlys][Nspe][Nspe][Nlys][Nphe][Nphe]-NH2),6.3,–,3.1,1.6,53.0,> 200,–
